Measured values published in ChEMBL document CHEMBL1157957, “9,11-Secosterols from the soft corals Sinularia lochmodes and Sinularia leptoclados” (J Nat Prod, 2006).
Values after ≈ are worked out from the molar mass of the structure shown.

How the values were obtained:
Assay type in all cases: functional, cell-based
HepG2 = assay: Cytotoxicity against human HepG2 cells by MTT assay
A549 = assay: Cytotoxicity against human A549 cells by MTT assay
MCF7 = assay: Cytotoxicity against human MCF7 cells by MTT assay
MDA-MB-231 = assay: Cytotoxicity against human MDA-MB-231 cells by MTT assay

SMILES	IC50 (HepG2)	IC50 (A549)	IC50 (MCF7)	IC50 (MDA-MB-231)
COc1cccc2c1C(=O)c1c(O)c3c(c(O)c1C2=O)C[C@@](O)(C(=O)CO)C[C@@H]3O[C@H]1C[C@H](N)[C@H](O)[C@H](C)O1 [DOXORUBICIN]	0.3 µg/mL (≈ 0.552 µM)	0.4 µg/mL (≈ 0.736 µM)	0.4 µg/mL (≈ 0.736 µM)	–
C=C(CC[C@@H](C)[C@H]1CC[C@@H]([C@@H]2CC=C3C[C@@H](O)CC[C@]3(C)C2=O)[C@]1(C)CCO)C(C)C	9.1 µg/mL (≈ 21.1 µM)	9.1 µg/mL (≈ 21.1 µM)	4.5 µg/mL (≈ 10.4 µM)	9.9 µg/mL (≈ 23 µM)
C=C(CC[C@@H](C)[C@H]1CC[C@@H]([C@@H]2CC[C@H]3C[C@@H](O)CC[C@]3(C)C2=O)[C@]1(C)CCO)C(C)C	8.2 µg/mL (≈ 19 µM)	9.8 µg/mL (≈ 22.6 µM)	9.2 µg/mL (≈ 21.3 µM)	11.3 µg/mL (≈ 26.1 µM)
CC(C)C(C)CC[C@@H](C)[C@H]1CC[C@@H]([C@@H]2CC=C3C[C@@H](O)CC[C@]3(C)C2=O)[C@]1(C)CCO (stereo not given in full)	14.1 µg/mL (≈ 32.6 µM)	16.8 µg/mL (≈ 38.8 µM)	15.7 µg/mL (≈ 36.3 µM)	15 µg/mL (≈ 34.7 µM)
